From patent US20210130417A1, “SYSTEMS AND METHODS FOR DESIGNING SYNTHETIC ANTIMICROBIAL PEPTIDES” (University of Notre Dame du Lac, priority 2017, published 2021)
Converted amounts (≈) assume the structure as drawn. Residues, ends and D or L forms follow the SMILES beside them.

Legend:
[1] = test system: sheep red blood cells (RBCs); details: compared to the PBS control
Experimental: For hemolysis assays, 100 μL of sheep red blood cells (RBCs) were washed three times in cold PBS (Thermo Fischer). Washed cells were resuspended in 25 mL of PBS. Triton, PBS, or peptide in 10% DMSO/PBS were added to 180 μL of resuspended RBCs and incubated at 37° C. for 1 h. Samples were read at 450 nm. Data was expressed as percent hemolysis by relativizing to the Triton and PBS controls.

E. coli BL-21 = type: cell-based, Escherichia coli
Experimental: The E. coli, P. aeruginosa, and P. syringae bacterial strains were routinely grown in LB broth (EMD Chemicals, Gibbstown, N.J.). […] All other bacteria were grown at 37° C. with agitation.
Overnight bacterial cultures were diluted to an OD of 0.01. μL of diluted culture and 10 μL of 10× peptide or vehicle were added to the wells of a 96-well microtiter plate for a final 1× concentration. Bacteria were grown in desired growth conditions in a Synergy H1 Microplate Reader (Biotek, Winooski, Vt.). For MIC, serial two-fold dilutions of the peptides were used. MIC was determined as the concentration of peptide that prevented overnight growth as indicated by OD 600.

[2] = test system: Streptococcus pyogenes M1T1
Source text: (§1) E. coli BL-21 frozen stock culture was purchased from Thermo Fischer. Pseudomonas aeruginosa PAO1 frozen stock culture was obtained from the Shrout Laboratory at the University of Notre Dame. Pseudomonas syringae frozen stock culture was obtained from the Innes Laboratory at Indiana University. Xanthomonas axonopodis pathovar Starr and Garces pathovar phaseoli (ATCC 9563) frozen stock culture was purchased from the ATCC. Streptococcus pyogenes M1T1 frozen stock culture was obtained from the lab of Dr. Victor Nizet, University of California San Diego. A methicillin resistant Staphylococcus aureus JKD frozen stock culture was obtained from the lab of Dr. Timothy Stinear, University of Melbourne.
(§2) The E. coli, P. aeruginosa, and P. syringae bacterial strains were routinely grown in LB broth (EMD Chemicals, Gibbstown, N.J.). S. aureus and S. pyogenes were routinely grown in Todd Hewitt broth (Neogen Corporation, Lansing, Mich.). X. axonopodis was routinely grown in Nutrient Broth (Sigma-Aldrich Co., St. Louis, Mo.). P. syringae and X. axonopodis were grown at room temperature without agitation. All other bacteria were grown at 37° C. with agitation.
(§3) Overnight bacterial cultures were diluted to an OD of 0.01. […] and 10 μL of 10× peptide or vehicle were added to the wells of a 96-well microtiter plate for a final 1× concentration. Bacteria were grown in desired growth conditions in a Synergy H1 Microplate Reader (Biotek, Winooski, Vt.). For MIC, serial two-fold dilutions of the peptides were used. MIC was determined as the concentration of peptide that prevented overnight growth as indicated by OD 600. For peptide screening, 8 μM or 4 μM peptide was screened against various bacteria. Peptides that inhibited overnight growth were selected for further study.

[3] = test system: Pseudomonas aeruginosa PAO1
Source text: as §1, §2, §3

| SMILES | hemolysis of library peptides [1] | MIC E. coli (E. coli BL-21) [µM] | MIC S. pyogenes [2] [µM] | MIC P. aeruginosa [3] [µM] |
| --- | --- | --- | --- | --- |
| CC[C@H](C)[C@H](NC(=O)[C@H](CCCCN)NC(=O)[C@H](CC(N)=O)NC(=O)[C@H](CCCCN)NC(=O)[C@H](CC(C)C)NC(=O)[C@H](Cc1ccc(O)cc1)NC(=O)[C@H](CCC(N)=O)NC(=O)[C@H](CCCNC(=N)N)NC(=O)[C@@H](NC(=O)[C@@H](NC(=O)[C@H](CCCCN)NC(=O)[C@H](CCCCN)NC(=O)[C@H](Cc1c[nH]c2ccccc12)NC(=O)[C@H](C)N)[C@@H](C)O)[C@@H](C)CC)C(=O)N[C@@H](CCCCN)C(=O)N[C@@H](CCCCN)C(=O)N[C@@H](CCCCN)C(=O)NCC(=O)N[C@@H](CCCNC(=N)N)C(=O)N[C@@H](CCCCN)C(=O)N[C@@H](C)C(=O)N[C@H](C(=O)N[C@H](C(=O)N[C@@H](C)C(=O)N[C@@H](Cc1c[nH]c2ccccc12)C(=O)O)[C@@H](C)CC)C(C)C [Peptide 20] (H-AWKKTIRQYLKNKIKKKGRKAVIAW-OH) | no significant changes in hemolysis | 8 (≈ 24.5 µg/mL) | 8 | 10 |
| CC[C@H](C)[C@H](NC(=O)[C@H](CCCCN)NC(=O)[C@H](CC(N)=O)NC(=O)[C@H](CCCCN)NC(=O)[C@H](CC(C)C)NC(=O)[C@H](Cc1ccc(O)cc1)NC(=O)[C@H](CCC(N)=O)NC(=O)[C@H](CCCNC(=N)N)NC(=O)[C@@H](NC(=O)[C@@H](NC(=O)[C@H](CCCCN)NC(=O)[C@H](CCCCN)NC(=O)CNC(=O)[C@H](C)N)[C@@H](C)O)[C@@H](C)CC)C(=O)N[C@@H](CCCCN)C(=O)N[C@@H](CCCCN)C(=O)N[C@@H](CCCCN)C(=O)N[C@@H](Cc1c[nH]c2ccccc12)C(=O)N[C@@H](CCCNC(=N)N)C(=O)N[C@@H](CCCCN)C(=O)N[C@@H](C)C(=O)N[C@H](C(=O)N[C@H](C(=O)N[C@@H](C)C(=O)N[C@@H](Cc1c[nH]c2ccccc12)C(=O)O)[C@@H](C)CC)C(C)C [Peptide 52] (H-AGKKTIRQYLKNKIKKKWRKAVIAW-OH) | low levels of hemolysis at higher concentrations | 8 (≈ 24.5 µg/mL) | 8 | 10 |
| CC[C@H](C)[C@H](NC(=O)[C@H](CCCCN)NC(=O)[C@H](CC(N)=O)NC(=O)[C@H](CCCCN)NC(=O)[C@H](CC(C)C)NC(=O)[C@H](Cc1ccc(O)cc1)NC(=O)[C@H](CCC(N)=O)NC(=O)[C@H](CCCNC(=N)N)NC(=O)[C@@H](NC(=O)[C@@H](NC(=O)[C@H](CCCCN)NC(=O)[C@H](CCCCN)NC(=O)CNC(=O)[C@H](C)N)[C@@H](C)O)[C@@H](C)CC)C(=O)N[C@@H](CCCCN)C(=O)N[C@@H](CCCCN)C(=O)N[C@@H](CCCCN)C(=O)NCC(=O)N[C@@H](CCCNC(=N)N)C(=O)N[C@@H](CCCCN)C(=O)N[C@@H](Cc1c[nH]c2ccccc12)C(=O)N[C@H](C(=O)N[C@H](C(=O)N[C@@H](C)C(=O)N[C@@H](Cc1c[nH]c2ccccc12)C(=O)O)[C@@H](C)CC)C(C)C [Peptide 60] (H-AGKKTIRQYLKNKIKKKGRKWVIAW-OH) | no significant changes in hemolysis |  |  |  |
| CC[C@H](C)[C@H](NC(=O)[C@H](CCC(=O)O)NC(=O)[C@H](CC(N)=O)NC(=O)[C@H](CCCCN)NC(=O)[C@H](CC(C)C)NC(=O)[C@H](Cc1ccc(O)cc1)NC(=O)[C@H](CCC(N)=O)NC(=O)[C@H](CCCNC(=N)N)NC(=O)[C@@H](NC(=O)[C@@H](NC(=O)[C@H](CCCCN)NC(=O)[C@H](CCCCN)NC(=O)[C@H](Cc1c[nH]c2ccccc12)NC(=O)[C@H](C)N)[C@@H](C)O)[C@@H](C)CC)C(=O)N[C@@H](CCCCN)C(=O)N[C@@H](CCCCN)C(=O)N[C@@H](CCCCN)C(=O)N[C@@H](Cc1c[nH]c2ccccc12)C(=O)N[C@@H](CCCNC(=N)N)C(=O)N[C@@H](CCCCN)C(=O)N[C@@H](C)C(=O)N[C@H](C(=O)N[C@H](C(=O)N[C@@H](C)C(=O)N[C@@H](Cc1c[nH]c2ccccc12)C(=O)O)[C@@H](C)CC)C(C)C [Peptide 90] (H-AWKKTIRQYLKNEIKKKWRKAVIAW-OH) | low levels of hemolysis at higher concentrations | 2 (≈ 6.37 µg/mL) | 8 |  |
| CC[C@H](C)[C@H](NC(=O)[C@H](CCCCN)NC(=O)[C@H](CC(N)=O)NC(=O)[C@H](CCCCN)NC(=O)[C@H](CC(C)C)NC(=O)[C@H](Cc1ccc(O)cc1)NC(=O)[C@H](CCC(N)=O)NC(=O)[C@H](CCCNC(=N)N)NC(=O)[C@@H](NC(=O)[C@@H](NC(=O)[C@H](CCC(=O)O)NC(=O)[C@H](CCCCN)NC(=O)[C@H](Cc1c[nH]c2ccccc12)NC(=O)[C@H](C)N)[C@@H](C)O)[C@@H](C)CC)C(=O)N[C@@H](CCCCN)C(=O)N[C@@H](CCCCN)C(=O)N[C@@H](CCCCN)C(=O)N[C@@H](Cc1c[nH]c2ccccc12)C(=O)N[C@@H](CCCNC(=N)N)C(=O)N[C@@H](CCCCN)C(=O)N[C@@H](C)C(=O)N[C@H](C(=O)N[C@H](C(=O)N[C@@H](C)C(=O)N[C@@H](Cc1c[nH]c2ccccc12)C(=O)O)[C@@H](C)CC)C(C)C [Peptide 91] (H-AWKETIRQYLKNKIKKKWRKAVIAW-OH) | low levels of hemolysis at higher concentrations | 2 (≈ 6.37 µg/mL) | 10 |  |
| CC[C@H](C)[C@H](NC(=O)[C@H](CCCCN)NC(=O)[C@H](CC(N)=O)NC(=O)[C@H](CCCCN)NC(=O)[C@H](CC(C)C)NC(=O)[C@H](Cc1ccc(O)cc1)NC(=O)[C@H](CCC(N)=O)NC(=O)[C@H](CCCNC(=N)N)NC(=O)[C@@H](NC(=O)[C@@H](NC(=O)[C@H](CCCCN)NC(=O)[C@H](CCCCN)NC(=O)[C@H](Cc1c[nH]c2ccccc12)NC(=O)[C@H](C)N)[C@@H](C)O)[C@@H](C)CC)C(=O)N[C@@H](CCCCN)C(=O)N[C@@H](CCCCN)C(=O)N[C@@H](CCCCN)C(=O)N[C@@H](Cc1c[nH]c2ccccc12)C(=O)N[C@@H](CCCNC(=N)N)C(=O)N[C@@H](CCCCN)C(=O)N[C@@H](C)C(=O)N[C@H](C(=O)N[C@H](C(=O)N[C@@H](C)C(=O)N[C@@H](Cc1c[nH]c2ccccc12)C(=O)O)[C@@H](C)CC)C(C)C [Peptide 92] (H-AWKKTIRQYLKNKIKKKWRKAVIAW-OH) | no significant changes in hemolysis | 4 (≈ 12.7 µg/mL) | 8 |  |
| CC[C@H](C)[C@H](NC(=O)[C@H](CCCCN)NC(=O)[C@H](CCC(=O)O)NC(=O)[C@H](CCCCN)NC(=O)[C@H](Cc1c[nH]c2ccccc12)NC(=O)[C@H](C)N)C(=O)N[C@@H](CCCNC(=N)N)C(=O)N[C@@H](CCC(N)=O)C(=O)N[C@@H](Cc1ccc(O)cc1)C(=O)N[C@@H](CC(C)C)C(=O)N[C@@H](CCCCN)C(=O)N[C@@H](CC(N)=O)C(=O)N[C@@H](CCC(=O)O)C(=O)N[C@H](C(=O)N[C@@H](CCCCN)C(=O)N[C@@H](CCCCN)C(=O)N[C@@H](CCCCN)C(=O)N[C@@H](Cc1c[nH]c2ccccc12)C(=O)N[C@@H](CCCNC(=N)N)C(=O)N[C@@H](CCCCN)C(=O)N[C@@H](C)C(=O)N[C@H](C(=O)N[C@H](C(=O)N[C@@H](C)C(=O)N[C@@H](Cc1c[nH]c2ccccc12)C(=O)O)[C@@H](C)CC)C(C)C)[C@@H](C)CC [Peptide 93] (H-AWKEKIRQYLKNEIKKKWRKAVIAW-OH) | low levels of hemolysis at higher concentrations | 1 (≈ 3.21 µg/mL) | 8 |  |
| CC[C@H](C)[C@H](NC(=O)[C@H](CCC(=O)O)NC(=O)[C@H](CC(N)=O)NC(=O)[C@H](CCCCN)NC(=O)[C@H](CC(C)C)NC(=O)[C@H](Cc1ccc(O)cc1)NC(=O)[C@H](CCCCN)NC(=O)[C@H](CCCNC(=N)N)NC(=O)[C@@H](NC(=O)[C@@H](NC(=O)[C@H](CCC(=O)O)NC(=O)[C@H](CCCCN)NC(=O)[C@H](Cc1c[nH]c2ccccc12)NC(=O)[C@H](C)N)[C@@H](C)O)[C@@H](C)CC)C(=O)N[C@@H](CCCCN)C(=O)N[C@@H](CCCCN)C(=O)N[C@@H](CCCCN)C(=O)N[C@@H](Cc1c[nH]c2ccccc12)C(=O)N[C@@H](CCCNC(=N)N)C(=O)N[C@@H](CCCCN)C(=O)N[C@@H](C)C(=O)N[C@H](C(=O)N[C@H](C(=O)N[C@@H](C)C(=O)N[C@@H](Cc1c[nH]c2ccccc12)C(=O)O)[C@@H](C)CC)C(C)C [Peptide 94] (H-AWKETIRKYLKNEIKKKWRKAVIAW-OH) | low levels of hemolysis at higher concentrations | 2 (≈ 6.38 µg/mL) | 10 | 8 |
| CC[C@H](C)[C@H](NC(=O)[C@H](CCCCN)NC(=O)[C@H](CCC(=O)O)NC(=O)[C@H](CCCCN)NC(=O)[C@H](Cc1c[nH]c2ccccc12)NC(=O)[C@H](C)N)C(=O)N[C@@H](CCCNC(=N)N)C(=O)N[C@@H](CCCCN)C(=O)N[C@@H](CCCCN)C(=O)N[C@@H](CC(C)C)C(=O)N[C@@H](CCCCN)C(=O)N[C@@H](CC(N)=O)C(=O)N[C@@H](CCC(=O)O)C(=O)N[C@H](C(=O)N[C@@H](CCCCN)C(=O)N[C@@H](CCCCN)C(=O)N[C@@H](CCCCN)C(=O)N[C@@H](Cc1c[nH]c2ccccc12)C(=O)N[C@@H](CCCNC(=N)N)C(=O)N[C@@H](CCCCN)C(=O)N[C@@H](C)C(=O)N[C@H](C(=O)N[C@H](C(=O)N[C@@H](C)C(=O)N[C@@H](Cc1c[nH]c2ccccc12)C(=O)O)[C@@H](C)CC)C(C)C)[C@@H](C)CC [Peptide 96] (H-AWKEKIRKKLKNEIKKKWRKAVIAW-OH) | no significant changes in hemolysis | 2 (≈ 6.36 µg/mL) | 8 | 8 |
